Test results taken from the NIST ThermoML archive (doi:10.1021/je700063c).
± gives the expanded uncertainty stated by the source.

Details: Liquid; for mass density: 298.15 K, 101.33 kPa, Pycnometric method; for Normal boiling temperature: Distillation

| Structure (SMILES) | mass density | Normal boiling temperature |
| --- | --- | --- |
| CCCCO [butan-1-ol] | 805.8 ± 0.7 kg/m3 | – |
| CCC(C)O (stereo not given) [butan-2-ol] | 802.4 ± 0.7 kg/m3 | 99.46 ± 0.1 °C |
| CC(C)CO [2-methyl-1-propanol] | 797.8 ± 0.7 kg/m3 | 107.77 ± 0.1 °C |
